The values that follow come from ChEMBL document CHEMBL5352447, “Development of [1,2]oxazoloisoindoles tubulin polymerization inhibitors: Further chemical modifications and potential therapeutic effects against lymphomas” (Eur J Med Chem, 2022).

In assay [1] the test system is NCI-H522. Kind of assay: Antiproliferative activity against human NCI-H522 cells assessed as cell growth inhibition incubated for 72 hrs by MTT assay. In kind it is functional. Background: Tetrazolium dyes change colour on reduction, which living cells bring about.
Assay [2] deals with K562. Kind of assay: Antiproliferative activity against human K562 cells assessed as cell growth inhibition incubated for 72 hrs by MTT assay. It counts as functional.
Assay [3] has as its system SU-DHL10. Nature of the assay: Antiproliferative activity against human SU-DHL-10 cells assessed as proliferating cells at 1 uM incubated for 72 hrs by MTT assay relative to control. In kind it is functional.
Assay [4] deals with DU-145. Kind of assay: Antiproliferative activity against human DU-145 cells assessed as cell growth inhibition incubated for 72 hrs by MTT assay. It counts as functional.
Assay [5] relates to KM12. Nature of the assay: Antiproliferative activity against human KM12 cells assessed as cell growth inhibition incubated for 72 hrs by MTT assay. It counts as functional.
In assay [6] the test system is SF-295. Nature of the assay: Antiproliferative activity against human SF-295 cells assessed as cell growth inhibition incubated for 72 hrs by MTT assay. It counts as functional.
Assay [7] relates to HOP-62. Kind of assay: Antiproliferative activity against human HOP-62 cells assessed as cell growth inhibition incubated for 72 hrs by MTT assay. It counts as functional.
Assay [8] concerns SF-539. Nature of the assay: Antiproliferative activity against human SF-539 cells assessed as cell growth inhibition incubated for 72 hrs by MTT assay. It counts as functional.
In assay [9] the test system is U-251. Nature of the assay: Antiproliferative activity against human U-251 cells assessed as cell growth inhibition incubated for 72 hrs by MTT assay. It counts as functional.
The target in assay [10] is Tubulin. Kind of assay: Inhibition of tubulin assembly (unknown origin). In kind it is protein-complex assay, Homo sapiens.
The test system of assay [11] is HOP-92. Kind of assay: Antiproliferative activity against human HOP-92 cells assessed as cell growth inhibition incubated for 72 hrs by MTT assay. It counts as functional.
For assay [12], the target named is Tubulin (Homo sapiens) (UniProt P68371+Q9H4B7+P0DPH7+P68366+Q13509+Q71U36+P04350+Q3ZCM7+P07437+P68363+Q9BQE3+Q6PEY2+Q13885+Q9BVA1+Q9BUF5). Kind of assay: Inhibition of [3H]Colchicine binding to tubulin (unknown origin) at 5 uM relative to control. In kind it is protein-complex assay.
Assay [13] deals with MCF7. Nature of the assay: Cytotoxicity against human MCF7 cells assessed as cell growth inhibition. In kind it is functional, cell-based.
Assay [14] concerns 786-0. Kind of assay: Antiproliferative activity against human 786-0 cells assessed as cell growth inhibition incubated for 72 hrs by MTT assay. It counts as functional.
Assay [15] has as its system T47D. Kind of assay: Antiproliferative activity against human T47D cells assessed as cell growth inhibition incubated for 72 hrs by MTT assay. In kind it is functional.
The subject of assay [16] is A498. Kind of assay: Antiproliferative activity against human A498 cells assessed as cell growth inhibition incubated for 72 hrs by MTT assay. It counts as functional.
A short description of assay [17]: Antiproliferative activity against human HBL1 cells assessed as inhibition of cell proliferation incubated for 72 hrs by MTT assay. In kind it is functional, cell-based. To be noted: HBL1, 72 h.
For assay [18], the system named is SW-620. Nature of the assay: Antiproliferative activity against human SW620 cells assessed as cell growth inhibition incubated for 72 hrs by MTT assay. In kind it is functional.
Assay [19] concerns MDA-MB-231. Kind of assay: Antiproliferative activity against human MDA-MB-231 cells assessed as cell growth inhibition incubated for 72 hrs by MTT assay. It counts as functional.
Assay [20] concerns PC-3. Nature of the assay: Antiproliferative activity against human PC-3 cells assessed as cell growth inhibition incubated for 72 hrs by MTT assay. It counts as functional.
In assay [21] the test system is CAKI-1. Kind of assay: Antiproliferative activity against human CAKI-1 cells assessed as cell growth inhibition incubated for 72 hrs by MTT assay. It counts as functional.
Assay [22] concerns NCI/ADR-RES. Nature of the assay: Antiproliferative activity against human NCI-ADR-RES cells assessed as cell growth inhibition incubated for 72 hrs by MTT assay. In kind it is functional.
In assay [23] the test system is OVCAR-5. Nature of the assay: Antiproliferative activity against human OVCAR-5 cells assessed as cell growth inhibition incubated for 72 hrs by MTT assay. In kind it is functional.
Assay [24] deals with OVCAR-3. Kind of assay: Antiproliferative activity against human OVCAR-3 cells assessed as cell growth inhibition incubated for 72 hrs by MTT assay. In kind it is functional.

For orientation: GI50 means the concentration at which growth is held to half of that of the control. For orientation: IC50 means the concentration that inhibits the measured activity by half. A word on the inhibition: it is the relative decrease from the control value, in per cent. A higher inhibition goes with a response far below the control. Consider `COc1ccc(Cn2cc3c(c2-c2cc(OC)c(OC)c(OC)c2)CCc2c(CN4CCOCC4)noc2-3)cc1`, for which the GI50 in [1] worked out at 300 nM; in assay [2], 430 nM; in assay [4] it was 1990 nM; in [5], 400 nM; in [6] it was 470 nM; in [7] it was 1000 nM. The GI50 in [8] was 440 nM; in [9], 880 nM; in assay [11], 900 nM; in assay [14] it was 770 nM; in [15], > 100000 nM; in assay [16], 320 nM. The GI50 in assay [18] stood at 430 nM; in assay [19] it was 2250 nM; in [20] it was 650 nM; in assay [21], 380 nM; in [22], 430 nM. Besides, the Activity in assay [3] is 0.7%. Besides, the IC50 in [10] was determined as 1000 nM; in assay [13] it was 470 nM; in [17], 500 nM. This compound displayed an inhibition in assay [12] of 33%.

For the compound `COc1ccc(Cn2cc3c(c2-c2cc(OC)c(OC)c(OC)c2)CCc2c(CN4CCCC4)noc2-3)cc1`, the GI50 is 470 nM in [1]; 350 nM in assay [2]; 4000 nM in [4]; 12600 nM in assay [5]; 460 nM in assay [6]; 1000 nM in assay [7]. Besides, the GI50 turned out to be 750 nM in [8]; 540 nM in assay [9]; 1350 nM in assay [11]; 1000 nM in [14]; 2650 nM in assay [15]; 780 nM in assay [16]. Also, the GI50 turned out to be 3200 nM in assay [23]; 540 nM in assay [18]; 3050 nM in [19]; 640 nM in assay [20]; 450 nM in assay [21]; 550 nM in assay [22]. Moreover, the Activity in assay [3] is 0.3%. Moreover, the figures for the IC50 in assay [10], in assay [13] and in [17] were 2800 nM, 1100 nM and 600 nM, respectively. This compound also gave an inhibition in assay [12] of 24%.

On to `CCOC(=O)c1noc2c1CCc1c-2cn(Cc2ccc(OC)cc2)c1-c1cc(OC)c(OC)c(OC)c1`, for which the GI50 in assay [1] came to 370 nM; in [24] it was 370 nM; in [4], 2320 nM; in assay [5], 910 nM; in assay [6], 3020 nM; in assay [7], 3000 nM. The GI50 was 1840 nM in [8]; 540 nM in [9]; 2720 nM in assay [11]; 3650 nM in assay [14]; > 100000 nM in [15]; 2770 nM in assay [16]. Moreover, the GI50 amounted to 4720 nM in assay [23]; 500 nM in assay [18]; 2700 nM in assay [19]; 2900 nM in assay [20]; 3520 nM in [22]. Further, the Activity in assay [3] was 59%. Moreover, the IC50 in [17] was found to be 1700 nM.

Regarding `COc1ccc(Cn2cc3c(c2-c2cc(OC)c(OC)c(OC)c2)CCc2c(CO)noc2-3)cc1`, the GI50 was 150 nM in [1]; 220 nM in [24]; 390 nM in [4]; 270 nM in assay [5]; 180 nM in assay [6]; 230 nM in assay [8]. For the same compound, the GI50 came to 330 nM in assay [9]; 3390 nM in assay [11]; 360 nM in [14]; 280 nM in assay [16]; 710 nM in assay [23]; 370 nM in [18]. The concentration for 50% growth inhibition (GI50) was determined as 630 nM in assay [19], 270 nM in assay [20] and 260 nM in assay [22]. Moreover, in [3], the Activity is on record as 62.1%. In assay [17], the IC50 turned out to be 1700 nM.
